# In article PMC9889419 (Pharmacological Reports, 2022):
# Structures can show the parent of a compound that is named as a salt. Where two headings read alike, the source gives them in different places. Marks after values point to notes of the source that are not given here.
# Tests used:
# Frings mice = Frings mice sound-induced seizures; type: in vivo; conditions: ip
# guinea pigs = assay: Corneal anesthesia; type: in vivo
# Description: A. Corneal anesthesia. […] The corneal reflex was examined by irritation of right eye conjunctiva (studied eye) and a left eye conjunctiva (control eye) by horsehair. The strength of local anesthetic activity was determined from the moment of solution instillation to the moment of reflex return. The presence or lack of corneal reflex were assessed. The eye conjunctiva irritation was done 6 times (every 5 s) with the interval of 5 min during the first 30 min [31].
# [1] = pKa by potentiometric titration; type: physicochemical; conditions: aqueous solution titrated with 0.051 M NaOH; 37 °C
# Description: pKa. The assay was performed by potentiometric titration, at 37 °C. The method is based on the additional portions of 0.051 M NaOH solution to the aqueous solution of test compounds, on electromagnetic stirrer with contact thermometer (Heidolph MR Hei-Standard). NaOH solution was added in 500 μL portions using Eppendorf automatic pipette. Waiting a few seconds after each titrant addition allowed the solution temperature to stabilize. After this time pH was recorded with the use of pH-meter CP-551 (Elmetron) for precise determination of pH in laboratory conditions (pH 0–14; pH accuracy ± 0.01) with combined chloride electrode OSH-10-10 (enables measurements in the temperature range 0–60 °C and pH range 1–12). Then, next portion of titrant was added. Titration was completed after 15 mL of NaOH solution was added. Threefold repetitions of titration were applied. pKa of the tested compound was calculated on the basis of the pH values obtained.
# [2] = Pharmacokinetics in plasma; type: in vivo, rats; conditions: for bioavailability / AUC(0-t) / C0 / MRT / clearance / Vd / k el / CL/F / Cmax / Tmax / Vd/F: male, Wistar, rat, plasma; for bioavailability: po; for bioavailability / AUC(0-t) / C0 / MRT / clearance / Vd / k el / CL/F / Cmax / Tmax / Vd/F / t0.5λz: rats; for Vd: read-out: Vz; for k el: read-out: λz (converted); for Vd/F: read-out: Vz/F
# Description: Pharmacokinetic study design. Male Wistar rats (250–300 g) bred in-house from progenitors obtained from Charles River Laboratories (Sulzfed, Germany) were used in this study. Animals were fasted overnight prior to drug administration but had free access to water. […] Moreover, this compound dissolved in the same solvent was administered orally (po) by oral gavage at two doses (50 and 100 mg/kg) (n = 4). Blood samples were collected from the catheter at various time points up to 5 h. […] The animals were anaesthetized (50/7.5 mg/kg ketamine/xylazine, ip) and sacrificed by decapitation at 5, 15, 30, 60, 120, 180, and 300 min after compound administration (n = 4 per time point). Blood was collected into heparinized tubes and organs such as liver, brain, lungs, kidneys, and heart were harvested. The blood samples were centrifuged at 4000 rpm for 10 min (EBA 12R, Hettich, Germany). Plasma and organs were stored at − 80 °C until analysis.
# Determination of KM-408 in plasma and tissue homogenates. Before analysis, tissue samples were homogenized in phosphate-buffered saline, pH 7.4 (1:4, w/v) with a tissue homogenizer (TH220; Omni International, Inc., Warrenton, VA, USA). Plasma (100 μL) or homogenate samples (500 μL) were mixed with an internal standard (IS) solution (R-( +)-propranolol, 4 μg/mL in methanol). Then, 20 μL of sodium carbonate (0.125 M) was added to each tube and the samples were extracted with 3 mL of diethyl ether by vortexing for 1 min. After centrifugation (3000 rpm, 15 min), the organic phase was transferred to a new tube and evaporated to dryness under a gentle stream nitrogen at 37 °C in a water bath. The dry residue was reconstituted in 100 μL of acetonitrile. Subsequently, 50 μL of 0.2 M borate buffer (pH = 7.0) and 50 μL of 6 mM FMOC-Cl solution in acetonitrile were added. After vortex-mixing for 1 min, the samples were kept for 30 min at 40 °C in a dry heat sterilizer (model MOV-112S, Sanyo, Japan). The reaction was stopped by the addition of 0.1 M solution of glycine in water (30 μL) and vortexing for 1 min. The reaction mixture was transferred directly into the autosampler vials. The chromatographic system (Merck-HITACHI, Japan) consisted of an L-2485 spectrofluorimetric detector operating at the excitation and emission wavelengths of 267 and 316 nm, respectively, an L-2130 pump, an L-2350 column oven, and an L-2200 autosampler. The EZChrom Elite Client/Server version 3.2 (Agilent Technologies Inc.) was used for data acquisition and processing. […] The column temperature was maintained at 50 °C. The mobile phase consisted of a mixture of acetonitrile and water (67:33, v/v), and pumped at a flow rate of 1 mL/min.
# Pharmacokinetic data analysis. Plasma and tissue concentration versus time profiles were analyzed by the non-compartmental approach in Phoenix WinNonlin v. 6.3 software (Pharsight Corporation, Mountain View, CA, USA). The peak concentration (Cmax) and the time to reach Cmax (tmax) were obtained directly from individual concentration–time profiles. The initial concentration (C0) after an iv dosing was obtained by extrapolation to zero time. The linear trapezoidal rule was applied to calculate the areas under the concentration–time curve (AUC) from the time of dosing to the last measured data point (AUC0-t) or infinity (AUC0-∞). The terminal slope (λz) was estimated by linear regression and the terminal half-life (t0.5λz) was calculated as ln2/λz. The volume of distribution based on the terminal phase (Vz) was calculated as: Dose/(λz ∙ AUC0-∞), whereas clearance (CL) was obtained from the following equation: Dose/AUC0-∞. The mean residence time (MRT) was defined as: AUMC0-∞/AUC0-∞, where AUMC is the area under the first moment curve. The absolute bioavailability (Fa) was calculated according to the equation: (AUCpo./Dosepo)/(AUCiv/Doseiv).
# hNav1.7 sodium channel = molecular target: T1, hNav1.7 sodium channel (Homo sapiens, UniProt Q15858); assay: Nav channel electrophysiology (IonWorks Quattro); type: cell-based
# T1 construct: host or cells: CHO cells
# T1 sequence (Q15858 whole entry): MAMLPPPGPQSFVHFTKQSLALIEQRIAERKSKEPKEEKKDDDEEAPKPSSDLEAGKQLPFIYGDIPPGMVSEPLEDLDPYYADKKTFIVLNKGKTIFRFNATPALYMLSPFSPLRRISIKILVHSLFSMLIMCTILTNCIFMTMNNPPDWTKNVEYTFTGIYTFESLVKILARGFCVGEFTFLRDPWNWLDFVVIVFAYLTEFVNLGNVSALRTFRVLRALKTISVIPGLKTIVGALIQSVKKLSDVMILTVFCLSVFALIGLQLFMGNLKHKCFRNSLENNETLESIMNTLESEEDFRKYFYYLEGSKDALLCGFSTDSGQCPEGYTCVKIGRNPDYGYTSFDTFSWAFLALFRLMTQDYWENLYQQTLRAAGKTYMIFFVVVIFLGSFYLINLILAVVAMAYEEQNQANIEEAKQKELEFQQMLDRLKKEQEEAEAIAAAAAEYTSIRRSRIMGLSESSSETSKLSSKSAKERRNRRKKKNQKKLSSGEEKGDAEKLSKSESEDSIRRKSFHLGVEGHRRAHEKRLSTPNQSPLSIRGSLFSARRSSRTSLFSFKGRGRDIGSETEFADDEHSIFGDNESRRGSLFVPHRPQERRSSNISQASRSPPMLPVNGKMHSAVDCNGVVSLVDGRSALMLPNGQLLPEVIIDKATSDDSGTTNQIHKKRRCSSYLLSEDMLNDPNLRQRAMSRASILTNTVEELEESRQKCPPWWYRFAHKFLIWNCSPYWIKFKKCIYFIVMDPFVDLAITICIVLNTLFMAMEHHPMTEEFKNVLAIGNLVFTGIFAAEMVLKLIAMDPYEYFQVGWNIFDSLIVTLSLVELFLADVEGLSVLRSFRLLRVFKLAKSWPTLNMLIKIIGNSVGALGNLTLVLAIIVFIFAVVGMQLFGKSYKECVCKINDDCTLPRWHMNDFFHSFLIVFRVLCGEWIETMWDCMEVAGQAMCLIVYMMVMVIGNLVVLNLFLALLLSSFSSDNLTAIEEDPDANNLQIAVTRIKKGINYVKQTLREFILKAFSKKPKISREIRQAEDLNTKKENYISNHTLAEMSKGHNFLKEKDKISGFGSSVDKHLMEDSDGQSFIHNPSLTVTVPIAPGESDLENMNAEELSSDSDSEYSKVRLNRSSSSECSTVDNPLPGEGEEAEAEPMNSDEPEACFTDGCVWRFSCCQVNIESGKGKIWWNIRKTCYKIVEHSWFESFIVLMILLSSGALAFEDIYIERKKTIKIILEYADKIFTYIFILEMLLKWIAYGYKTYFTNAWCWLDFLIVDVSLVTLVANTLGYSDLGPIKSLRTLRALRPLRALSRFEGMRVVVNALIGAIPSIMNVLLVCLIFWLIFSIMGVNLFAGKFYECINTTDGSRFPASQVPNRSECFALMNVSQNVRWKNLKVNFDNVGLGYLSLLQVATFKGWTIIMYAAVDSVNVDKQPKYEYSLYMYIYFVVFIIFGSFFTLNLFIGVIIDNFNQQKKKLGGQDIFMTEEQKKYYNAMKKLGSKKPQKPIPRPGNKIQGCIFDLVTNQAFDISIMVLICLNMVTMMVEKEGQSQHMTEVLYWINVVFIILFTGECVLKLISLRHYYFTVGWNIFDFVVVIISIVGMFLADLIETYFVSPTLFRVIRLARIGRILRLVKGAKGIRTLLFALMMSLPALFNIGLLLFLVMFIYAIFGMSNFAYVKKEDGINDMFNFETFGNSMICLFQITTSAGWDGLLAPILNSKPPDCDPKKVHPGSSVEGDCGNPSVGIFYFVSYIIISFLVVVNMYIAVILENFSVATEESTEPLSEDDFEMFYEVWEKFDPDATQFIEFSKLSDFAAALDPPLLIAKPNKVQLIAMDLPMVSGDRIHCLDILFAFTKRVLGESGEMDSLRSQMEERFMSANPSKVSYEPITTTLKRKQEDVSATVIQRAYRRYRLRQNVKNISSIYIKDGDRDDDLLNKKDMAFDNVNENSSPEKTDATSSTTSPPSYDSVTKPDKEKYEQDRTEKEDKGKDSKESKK
smiles,measurement,setting,value
"CCC(CO)NCCOc1c(C)cccc1Cl (centres unmarked) [Compound 4, R,S-2-((2-(2-chloro-6-methylphenoxy)ethyl)amino)butan-1-ol]",Frings mice sound-induced seizures ED50,Frings mice,6.05 (4.23–8.45) mg/kg
"CCC(CO)NCCOc1c(C)cccc1Cl (centres unmarked) [KM-408, R,S-2-((2-(2-chloro-6-methylphenoxy)ethyl)amino)butan-1-ol hydrochloride]",Inhibition of pain reaction,"guinea pigs; 0.5%, 5 min",94.4*** %
same,Inhibition of pain reaction,"guinea pigs; 0.5%, 30 min",8.3%
same,Inhibition of pain reaction,"guinea pigs; […], 5 min",80.5*** %
same,corneal anesthesia: active at,guinea pigs; guinea pigs,0.125%
same,pKa,[1],9.5
same,plasma concentration,"[2]; 5 mg/kg iv, immediately after administration",1.48*10^–5 M
same,bioavailability,"[2]; 50 mg/kg, po 50 mg/kg, read-out: F",3.9%
same,bioavailability,"[2]; 100 mg/kg, po 100 mg/kg, read-out: F",3.6%
same,bioavailability,"[2]; 100 mg/kg, po 50 and 100 mg/kg, read-out: absolute bioavailability",3.6 to 3.9%
same,AUC(0-t),[2]; iv 1 mg/kg,207 ng·h/mL
same,C0,[2]; iv 1 mg/kg,371 ng/mL
same,MRT,[2]; iv 1 mg/kg,51.7 min
same,clearance,[2]; iv 1 mg/kg,80 mL/min/kg
same,Vd,[2]; iv 1 mg/kg,2.53 L/kg
same,k el,[2]; iv 1 mg/kg,0.000533 s⁻¹
same,AUC(0-t),[2]; iv 5 mg/kg,1210 ng·h/mL
same,C0,[2]; iv 5 mg/kg,4360 ng/mL
same,MRT,[2]; iv 5 mg/kg,43.5 min
same,clearance,[2]; iv 5 mg/kg,70 mL/min/kg
same,Vd,[2]; iv 5 mg/kg,3.77 L/kg
same,k el,[2]; iv 5 mg/kg,0.0003 s⁻¹
same,AUC(0-t),[2]; iv 10 mg/kg,2720 ng·h/mL
same,C0,[2]; iv 10 mg/kg,5330 ng/mL
same,MRT,[2]; iv 10 mg/kg,42.3 min
same,clearance,[2]; iv 10 mg/kg,60 mL/min/kg
same,Vd,[2]; iv 10 mg/kg,2.3 L/kg
same,k el,[2]; iv 10 mg/kg,0.00045 s⁻¹
same,AUC(0-t),[2]; po 50 mg/kg,430 ng·h/mL
same,CL/F,[2]; po 50 mg/kg,1950 mL/min/kg
same,Cmax,[2]; po 50 mg/kg,313 ng/mL
same,MRT,[2]; po 50 mg/kg,79.1 min
same,Tmax,[2]; po 50 mg/kg,30 min
same,Vd/F,[2]; po 50 mg/kg,80.3 L/kg
same,k el,[2]; po 50 mg/kg,0.000383 s⁻¹
same,AUC(0-t),[2]; po 100 mg/kg,807 ng·h/mL
same,CL/F,[2]; po 100 mg/kg,2060 mL/min/kg
same,Cmax,[2]; po 100 mg/kg,573 ng/mL
same,MRT,[2]; po 100 mg/kg,83 min
same,Tmax,[2]; po 100 mg/kg,30 min
same,Vd/F,[2]; po 100 mg/kg,104 L/kg
same,k el,[2]; po 100 mg/kg,0.000333 s⁻¹
same,t0.5λz,[2]; iv 1 mg/kg,21.80 min
same,t0.5λz,[2]; iv 5 mg/kg,37.94 min
same,t0.5λz,[2]; iv 10 mg/kg,26.02 min
same,t0.5λz,[2]; po 50 mg/kg,30.59 min
same,t0.5λz,[2]; po 100 mg/kg,34.98 min
same,IC50,hNav1.7 sodium channel; 10 Hz,15.4 µM
same,IC50,hNav1.7 sodium channel; Inactivated state,< 10 µM
same,IC50,hNav1.7 sodium channel; Tonic block,52 µM
